The pIC50 is the IC50 on a negative log10 scale, so that one unit is a factor of ten. Read a low pIC50 as a high IC50.

SMILES strings stand for the structures. pIC50: −log10 of the molar value. A value given as a limit tells only on which side of the number the result lay.

One data set deals with 17Cl-1 cells. Put plainly: 24 h MTS cytotoxicity assay, 17Cl-1. To be noted: Mus musculus, 24 h incubation, dark. It is filed as cell-based, murine. The method, then:
(§1) The MTS tetrazolium compound is reduced by cells into a coloured formazan product which is soluble in cell culture media. It can be detected colorimetrically between 450 and 540 nm with the measured absorbance directly proportional to the amount of metabolically active cells in culture. Cells were seeded into clear 96-well plates containing 10,000 cells/well in 100 µL complete growth medium and cultured for 24 h at 37 °C and 5% CO2. […] After further 24 h incubation at 37 °C and 5% CO2, 20 µL of CelTiter 96® AQueous One Solution (Promega) was added into each well and incubated at 37 °C, 5% CO2 for 1–4 h, according to the manufacturer’s instruction. The absorbance of each well was measured at 490 nm using a plate reader (Spark, Tecan). Control measurements included negative control of cells with DMEM, cells with DMEM containing 0.1% DMSO, cell-free culture media (blank) and cell-free sample dilutions in culture media to evaluate potential sample interferences with MTS assay. All experiments were conducted in biological triplicates. The percentage cell viability was calculated according to Eq. (1):1 Cell viability(%)=100×Absorbanceoftreatedcells-Absorbanceofblank/Absorbanceofcontrol-Absorbanceofblank
(Tetrazolium dyes change colour on reduction, which living cells bring about.)

Data set [1] has as its system ssRNA (EGFP-encoding mRNA, ~ 1 k nt). Put plainly: ssRNA photocleavage, agarose gel electrophoresis. It is filed as biochemical. To be noted: 10 µM flavin, 15 min white LED, PBS 0.1% DMSO. The method, then: (§2) A 20 µL aliquot was taken after 15 min of white LED irradiation (1 × 10^5 lx). Prior to loading, 2 µL of 6X Orange-G loading dye in glycerol were added to the aliquot and mixed vigorously. The gel was electrophoresed at 80 V for 35 min with 1% agarose gels in 1X Tris–acetate-EDTA (TAE) buffer. Gels were then imaged in a Syngene G:BOX Gel Documentation System and band % quantification was performed using ImageJ Gel Analyzer.

Data set [2] deals with WI-38 cells. Put plainly: 24 h MTS cytotoxicity assay, WI-38. The format is cell-based. To be noted: Homo sapiens, 24 h incubation, dark. How it is done: as §1
Data set [3] is described as follows: Flavin photostability in PBS under white LED irradiation. The format is physicochemical. To be noted: 30 min, 100 µM, pH 7.4. An excerpt:
After successful synthesis and initial characterisation, we monitored the photostability of the compounds in PBS (1x, pH 7.4) which was used for PDI assays as distilled or ultrapure water destabilises bacterial cells and coronaviruses through osmotic pressures[37],[38], thereby augmenting inactivation results. […] This yields lumichrome as the major degradation product which can only act as a PS under UV-irradiation[40]. […] However, it appears that guanidino substitution in our case improves the photostability.
Figure S4: (A) Flavin photostability (100 µM) in PBS (0.1% DMSO) irradiated with 1x105 lx (35 mW/cm2) where A
= Abs at 450 nm and A0 = Abs at 450 nm at 0 min.
photostability. Experiments were performed using a quartz cuvette and measured using an Agilent Cary 300
(1 picture or pasted object on this page, not shown here)

The next data set has as its system pDNA (pUC18). Put plainly: pDNA photocleavage, agarose gel electrophoresis. It is filed as biochemical. To be noted: 10 µM flavin, 15 min white LED, PBS 0.1% DMSO. How it is done:
as §2

Data set [4] has as its system WI-38 cells. Put plainly: Light-induced toxicity towards WI-38 cells (MTS). It is filed as cell-based, human. To be noted: 10 μM flavin, 15 min irradiation 1 × 10^5 lx. How it is done: An adapted method reported by Maisch et al. was used to conduct phototoxicity studies on human lung fibroblasts, WI-38[28]. Cells were seeded into 96-well plates containing 10,000 cells/well in 100 µL complete growth medium and cultured for 24 h at 37 °C and 5% CO2. […] The resulting mixtures were then incubated in the dark for 5 min and then either illuminated with 1 × 10^5 lx for 5, 10 or 15 min, or incubated further in the dark for 15 min (dark control). After irradiation, the flavin solutions were removed and 100 μL of DMEM with 10% FBS and without phenol red was added to each well and incubated over night at 37 °C and 5% CO2. Subsequently, 20 µL of MTS reagent was added into each well and incubated at 37 °C and 5% CO2 for 1–4 h and the absorbance of each well was measured at 490 nm using a plate reader. Control measurements included negative control untreated cells with light and in the dark containing 0.1% DMSO and cells treated with flavins for 15 min in the dark. All experiments were conducted in biological triplicates. The percentage cell viability was calculated according to Eq. (1).

The test system of data set [5] is murine hepatitis virus A59 strain (MHV-A59). Put plainly: Photodynamic inactivation of MHV-A59 (TCID50 assay in 17Cl-1 cells). The format is cell-based. How it is done:
The efficacy of the flavins were enumerated utilizing modified methods from ISO 18,184 and Leibowitz et al.[56] […] 100 µM working stock solutions were then created by diluting each DMSO solution into PBS. To control for the effect of DMSO on MHV-A59, DMSO was diluted into PBS at the same concentration. A white light apparatus was set up to cover a 4 × 5 (row x column) area of a 96-well plate with the same level of light intensity (1 × 10^5 lx). The stock solutions were then diluted in replicates of four to a total of 180 µl in PBS at 1, 5, and 10 µM concentrations for each sample. Virus stocks of MHV-A59 were thawed on ice prior to use. 20 µl of MHV-A59 stock (1.4 × 10^9 PFU/ml) was then mixed into each well, and the 4 × 5 well matrix was treated with the light or incubated in the dark at room temperature for a specified time (5, 10, or 15 min).
After treatment, the samples were mixed into 320 µl of Gibco Difco™ Beef Extract (1.5% w/v beef extract in ddH2O; Life Technologies) and rolled for 15 min to chelate any free ions in the solution. The samples then were serially diluted (10^0–10^–7) in infectivity media (Dulbecco’s modified Eagle’s medium low glucose 1 g/L (DMEM, Life Technologies) supplemented with 2.5% fetal bovine serum (Merck), 3% tryptose phosphate broth (Merck), 1 × non-essential amino acids (Gibco), 1 × antibiotic–antimycotic (Thermo Fisher Scientific) and 1 × L-Glutamine (Gibco]) and added in triplicate to 17Cl-1 cell plates. For each sample or control there were 4 replicate treatments (in light or dark); each treatment replicate was plated in triplicate. Infected 17Cl-1 plates were incubated at 37 °C in a 5% CO2 atmosphere for 24 h. Plates were scored for cytopathic effect (CPE) by microscopy and viral titres were determined by the Reed and Muench 50% tissue culture infectious dose (TCID50) end point method. Outliers were removed from the four replicates using an outlier test. The full protocol was repeated in triplicate on different days to account for any variability in the assay.

A further data set concerns E. coli BL21(DE3). Put plainly: Photodynamic inactivation of E. coli (CFU counting). It is filed as cell-based. The method, then: After an overnight aerobic culture in LB broth at 37 °C with shaking at 225 rpm, the resulting E. coli were centrifuged at 2,500 rpm for 10 min. The pellet was resuspended in PBS (Sigma, 1x, pH 7.4) to an OD600 value of 0.6 (~ 1 × 10^8 bacteria per ml). […] Aliquots of negative controls (0.5% DMSO in PBS; PBS only) and 100 μM flavin-bacteria samples were covered in foil to remain in dark, while all samples were plated onto a 96-well plate and exposed to white LED irradiation (1 × 10^5 lx) for 15 min. After 15 min of irradiation or darkness, each sample was serially diluted to its respective, appropriate dilution and plated onto an LB agar plate with 50 μg/mL kanamycin. Plates were incubated overnight at 37 °C in the dark. Survival of bacteria was determined by counting colony forming units (CFUs) the next day.
For time point data, aliquots of 100 μM flavin-bacteria solutions were taken at 5-min increments of irradiation (0, 5, 10, and 15 min) and evaluated similarly as above. Time point experiment with one-minute increments, between 0 and 5 min, were conducted for 100 μM F4-bacteria samples.

The mark [6] stands for this setting: 5 µM flavin, 10 min irradiation.

As for `Cc1cc2nc3c(=O)[nH]c(=O)nc-3n(C[C@H](O)[C@H](O)[C@H](O)CO)c2cc1C` [Riboflavin, reference compound], the pIC50 with 17Cl-1 cells and with WI-38 cells [2] was less than 4.00 throughout. Besides, the “% cleaved ssRNA” value in data set [1] was 28%. In addition, in data set [3], the photodecomposition / degradation is listed as 80%. In addition, the “% NC (nicked coiled pDNA after photocleavage)” value in the data set with pDNA (pUC18) came to 11%. In the data set with WI-38 cells [4], the “reduction in cell viability (light-induced toxicity)” value is on record as “no decrease in cell viability”. Further, the “MHV-A59 log10 reduction in viral titre” value in data set [5] (1 µM flavin, 10 min irradiation (21.0 J/cm^2)) is on record as 1.2 log10; in data set [5] (setting [6]), 3.2 log10; in data set [5] (10 µM flavin, 5 min irradiation (10.5 J/cm^2)), 2.7 log10; in data set [5] (10 µM flavin, 10 min irradiation), 3.4 log10; in data set [5] (10 µM flavin, 15 min irradiation (31.5 J/cm^2)) it was 3.7 log10. Moreover, the “MHV-A59 viral load reduction” value in data set [5] (setting [6]) is reported as more than 99.9%. The “E. coli log10 reduction of CFUs” value in the data set with E. coli BL21(DE3) (1 µM flavin, 15 min irradiation (31.5 J/cm^2)) is recorded as 0.2 log10; in the data set with E. coli BL21(DE3) (1 µM flavin, 15 min irradiation (31.5 J/cm^2), listed as riboflavin) it was “no inactivation”; in the data set with E. coli BL21(DE3) (10 µM flavin, 15 min irradiation) it was 0.2 log10; with E. coli BL21(DE3) (100 µM flavin, 5 min irradiation (10.5 J/cm^2)) it was 0.0 log10; with E. coli BL21(DE3) (100 µM flavin, 10 min irradiation), 0.0 log10; in the data set on E. coli BL21(DE3) (100 µM flavin, 15 min irradiation), 0.0 log10. Further, the “E. coli log10 reduction of CFUs” value in the data set on E. coli BL21(DE3) (100 µM flavin, 15 min irradiation, listed as riboflavin) is reported as “no activity”.

Source of the values: paper PMC9022420 (Scientific Reports, 2022).
